Assay results taken from patent US20160361418A1, “COMPOSITION FOR PREVENTION OR TREATMENT OF TREATMENT-RESISTANT CANCER” (priority 2014, published 2016).
Entries after “also recorded” stand apart in the source; their conditions may differ.

Assays:
[1] = tested on: brain tumor cell line A172; experiment: Photosensitivity of brain tumor cells to ALA-PDT (colony formation assay); type: cell-based; conditions: 0.3 mM ALA 4 hours, 405-nm laser light, colonies after 14 days
Protocol: (§1) The brain tumor cell line A172 (purchased from American Type Culture Collection) was cultured in a D-MEM/F12 culture solution containing no FCS (containing L-glutamine, heparin, B27, EGF, and bFGF). As a result, the cells formed a sphere similar to stem cells. […] The cells, which had grown to a sphere type and a non-sphere type, were treated with trypsin. Subsequently, the cells were each incubated at a density of 1.0×10^6 cells/ml, together with 0.3 mM ALA, for 4 hours, and thereafter, a 405-nm laser light was applied to the cells. After the cells had been further cultured for 7 days, the cell viability was measured by a WST-8 assay in the same manner as that of Example 2.
Moreover, 500 cells were collected from A172 cells, on which ALA-PDT had been performed, and the cells were then seeded on a D-MEM agar medium containing 10% FCS and an antibiotic, followed by performing a culture for 14 days. Thereafter, the cultured cells were treated with Trypan blue containing 10% formalin, so that the cell colonies were immobilized and stained. The number of colonies each consisting of 50 or more cells was counted using a stereoscopic microscope.
In the aforementioned WST-8 assay, the cell viability can be measured based on a reduction reaction using mitochondrial NAD(P)H. On the other hand, in the colony formation assay, the proliferation ability of cells can be measured. […]

MD13 cells = experiment: Photosensitivity of cancer stem cells to ALA-PDT (WST-8 cell viability); type: cell-based, human; conditions: sphere type relative to non-sphere type
Protocol: (§2) Specifically, three types of brain tumor glioma stem cell lines (MD13, MD30, and 157NS cells), which had been isolated and established from brain tumor patients, were used, and an experiment was carried out to verify the photosensitivity of these cells to ALA-PDT. In preparation for the experiment, these cells were first cultured in a D-MEM/F12 culture solution containing 10% fetal calf serum (FCS) and in a D-MEM/F12 culture solution containing no FCS (containing L-glutamine, heparin, B27, EGF, and bFGF), and the shapes of the cells were then examined.
(§3) Brain tumor stem cells (MD13, MD30, and 157NS cells), which had grown to a sphere type and a non-sphere type, were treated with trypsin, and thereafter, the resulting cells were each incubated at a density of 1.0×10^6 cells/ml, together with 0.3 mM ALA, for 4 hours. Thereafter, a 405-nm laser light was applied to the cells. After the cells had been cultured for 7 days, the cell viability was measured according to a viable cell count measurement method (WST-8 assay) using water soluble tetrazolium salts as a coloring reagent.
(§4) The sphere type cells (FIG. 2B) cultured in the D-MEM/F12 culture solution containing no FCS (containing L-glutamine, heparin, B27, EGF, and bFGF) had higher sensitivity to ALA-PDT, than the non-sphere type cells (FIG. 2A) cultured in the D-MEM/F12 culture solution containing 10% FCS.

157NS cells = experiment: as above; type: cell-based, human; conditions: sphere type relative to non-sphere type
Protocol: as §2, §3, §4

MD30 cells = experiment: as above; type: cell-based, human; conditions: sphere type relative to non-sphere type
Protocol: as §2, §3, §4

HeLa cells = experiment: Multiple-dose ALA-PDT on HeLa cells and therapy-resistant HeLa cells (WST8 cell viability); type: cell-based, human
Protocol: HeLa cells (human-derived uterine cervix cancer cell line; 1×10^5 cells) were seeded on a 60-mm dish, and then cultured for 24 hours. Thereafter, an anticancer agent was administered to the culture solution. […] The surviving cells (5×10^3 cells) were seeded on a 96-well plate. In the present example, these cells surviving 72 hours after administration of the anticancer agent were used as therapy-resistant cancer.
Twenty-four hours after the seeding of the surviving cells on the 96-well plate, 5-aminolevulinic acid hydrochloride (ALA) was administered to the cells, and the resulting cells were then cultured for 4 hours. Thereafter, 631-nm LED light was applied to the cells to a total dose of 60 J/cm^2, one to three times. In the case of multiple-dose light irradiation, the interval between light irradiations was set at 2 hours. Twenty-four hours after the light irradiation, the resulting cells were washed with PBS twice, and the cell viability was then measured by the WST8 assay.
The longitudinal axis in each figure indicates the percentage of cell viability in the experiment groups, while the cell viability is set at 100% when the experiment was carried out under the same conditions as those described above with the exception that ALA was not administered.

[2] = tested on: brain tumor cell line A172; experiment: Photosensitivity of brain tumor cells to ALA-PDT (WST-8 cell viability); type: cell-based; conditions: 0.3 mM ALA 4 hours, 405-nm laser light, WST-8 after 7 days
Protocol: as §1

[3] = metabolized in a living body; cited from earlier work
[4] = tested on: Human glioblastoma astrocytoma U87MG cells; experiment: ALA-PDT with Lapatinib, cell viability by MTT method; type: cell-based; conditions: LED 635 nm 12 J/cm^2
Protocol: Human glioblastoma astrocytoma U87MG cells (10^6 cells) were suspended in DMEM (2% FBS), and thereafter, 10 mM ALA alone was added to the suspension, or 10 mM ALA was combined with Lapatinib in a concentration from 1 nM to 300 μM, and the combination was then added to the suspension. The obtained mixture was cultured at 37° C. for 4 hours. Thereafter, the cells were irradiated with LED having a peak at 635 nm (12 J/cm^2), and the cell viability was then measured by an MTT method. It is to be noted that the MTT method has the same measurement principle as that of the WST-8 assay, and that this is a colorimetric determination method for measuring an enzymatic activity of reducing MTT to a formazan pigment (violet).

[5] = tested on: Brain tumor stem cells (MD13, MD30, and 157NS cells); experiment: Photosensitivity of cancer stem cells to ALA-PDT, summary over the three lines; type: cell-based, human; conditions: 0.3 mM ALA 4 hours; 405-nm laser light
Protocol: as §2, §3, §4

ABCG2 [6] = target: T1, ABCG2 (Homo sapiens, UniProt Q9UNQ0); experiment: Inhibition of transport function of ABCG2 (Hoechst 33342 excretion, Flp-In-293/ABCG2 cells, FACS); type: cell-based; parameters: expressed in transfected cells; host or cells: Flp-In-293 cells (Flp-In-293/ABCG2), with Flp-In-293/Mock as control; conditions: inhibitor 1 nM to 100 μM, 5 μg/mL Hoechst 33342, 90 minutes
T1 sequence (Q9UNQ0 1-655): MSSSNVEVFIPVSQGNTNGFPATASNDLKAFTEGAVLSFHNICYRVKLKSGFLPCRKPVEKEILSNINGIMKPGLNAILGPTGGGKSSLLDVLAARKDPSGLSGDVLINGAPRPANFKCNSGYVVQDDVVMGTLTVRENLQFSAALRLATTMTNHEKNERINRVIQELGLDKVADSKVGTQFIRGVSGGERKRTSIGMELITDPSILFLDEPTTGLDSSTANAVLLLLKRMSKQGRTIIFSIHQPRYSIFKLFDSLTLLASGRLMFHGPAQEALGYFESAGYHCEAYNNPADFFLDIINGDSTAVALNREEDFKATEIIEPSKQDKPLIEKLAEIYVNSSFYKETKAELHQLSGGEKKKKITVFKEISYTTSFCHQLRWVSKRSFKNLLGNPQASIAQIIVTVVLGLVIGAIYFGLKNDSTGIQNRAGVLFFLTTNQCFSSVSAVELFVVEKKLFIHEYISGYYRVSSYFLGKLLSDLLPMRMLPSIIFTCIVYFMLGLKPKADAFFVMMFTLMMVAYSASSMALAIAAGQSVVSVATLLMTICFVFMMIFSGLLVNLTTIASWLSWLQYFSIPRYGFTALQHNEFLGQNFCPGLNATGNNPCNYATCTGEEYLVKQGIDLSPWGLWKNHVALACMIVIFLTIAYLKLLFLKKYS
Protocol: In the present experiment, using Hoechst 33342 and a plurality of tyrosine kinase inhibitors, an experiment was carried out to screen for an inhibitor of ABCG2.
Specifically, using Erlotinib, Gefitinib, Lapatinib, Imatinib, Nilotinib and Dasatinib as tyrosine kinase inhibitors, and also using an L-type calcium channel inhibitor, Verapamil, as a control, screening was carried out for inhibition of the transport function of ABCG2.
Flp-In-293 cells (Flp-In-293/ABCG2 cells), which express human ABCG2, were cultured together with Hoechst 33342 as a substrate of ABCG2 and the aforementioned tyrosine kinase inhibitors for a certain period of time. Thereafter, the level of Hoechst 33342 accumulated in individual cells was measured using FACS (Beckman Coulter). […] Specific experimental procedures are as follows.
Flp-In-293/Mock and Flp-In-293/ABCG2 were each washed with PBS (phosphate buffered saline) twice, and were then peeled using Trypsin-EDTA. 10^6 cells were suspended in a DMEM medium (2% FBS). Subsequently, 5 μg/mL Hoechst 33342 (Invitrogen) alone was added to the suspension, or 5 μg/mL Hoechst 33342 was combined with various types of inhibitors in concentrations of 1 nM to 100 μM, and the combination was then added to the suspension. The obtained mixture was cultured at 37° C. for 90 minutes. After completion of the culture, the cultured cells were washed with cold PBS (2% FBS), and were then suspended again in cold PBS (2% FBS). Thereafter, intracellular fluorescence intensity was measured using FACS (Beckman Coulter). 50,000 cells were measured for a single measurement. Hoechst 33342 accumulated in the cells was excited with UV laser, the fluorescence at […] was then detected, and the mean fluorescence intensity (MFI) of the fluorescence of the measured cells was then calculated. Based on the obtained results, the inhibitory percentage against ABCG2 was calculated.
The MFI values of Flp-In-293/Mock cells and Flp-In-293/ABCG2 cells upon addition of Hoechst 33342 alone were set at 100% and 0%, respectively. […]

[7] = tested on: Human glioblastoma astrocytoma U87MG cells; experiment: Intracellular accumulation of PpIX biosynthesized from ALA (FACS fluorescence); type: cell-based; conditions: 4 hours; for fluorescence intensity / intracellular accumulation of PpIX: 2 mM ALA with inhibitor 1 nM to 100 μM
Protocol: Human glioblastoma astrocytoma U87MG cells were cultured together with 2 mM ALA and Lapatinib in various concentrations for 4 hours, and thereafter, the fluorescence intensity (MFI value) of PpIX, which was biosynthesized from ALA and was accumulated in the cells during the culture, was measured using FACS (Beckman Coulter). Specific experimental procedures are as follows.
U87MG cells were washed with PBS twice, and were then peeled using Trypsin-EDTA. 10^6 cells were suspended in a low-serum DMEM medium (2% FBS). Subsequently, 2 mM ALA alone was added to the suspension, or 2 mM ALA was combined with Lapatinib or Gefitinib in a concentration from 1 nM to 100 μM, and the combination was then added to the suspension. Thereafter, the obtained mixture was cultured at 37° C. for 4 hours. After completion of the culture, the cultured cells were washed with cold PBS (2% FBS), and were then suspended again in cold PBS (2% FBS). Thereafter, intracellular fluorescence intensity was measured using FACS (Beckman Coulter). 50,000 cells were measured for a single measurement. PpIX accumulated in the cells was excited with UV laser (325 nm), the fluorescence at 575 nm was then detected, and the mean fluorescence intensity (MFI) of the fluorescence of the measured cells was then calculated. Based on the obtained results, intracellular accumulation of PpIX was relatively calculated, and inhibition of the PpIX transport of ABCG2 by Lapatinib or Gefitinib was estimated.

ABCG2 [8] = target: T1, ABCG2; conditions: from earlier publication (Pharm Res. 26(2), 449-458, 2009); cited from earlier work

SMILES: NCC(=O)CCC(=O)O [ALA, 5-aminolevulinic acid]
- photosensitivity to ALA-PDT of sphere type versus non-sphere type cells (colony-forming ability) [1]: significantly higher photosensitivity than the non-sphere type cells
- ALA-PDT sensitivity (MD13 cells): 2.4
- ALA-PDT sensitivity (157NS cells): 1.8
- ALA-PDT sensitivity (MD30 cells): 1.9
- cell viability in relation to the number of light irradiations (HeLa cells; 125 to 250 μM ALA, 631-nm LED total 60 J/cm^2 in one to three irradiations): decreased depending on the number of light irradiations
- ALA concentration at which the cell viability was decreased (HeLa cells; HeLa with no anticancer agent or surviving Adriamycin, Cisplatin, Etoposide or 5-Fluorouracil, 631-nm LED total 60 J/cm^2, 24 hours after): ≥ 125 µM
- photosensitivity to ALA-PDT of sphere type versus non-sphere type cells (cell viability) [2]: higher photosensitivity than the non-sphere type cells
- time until ALA is excreted from the body [3]: ≤ 48 h
- cells died ([4]; 10 mM ALA alone 4 hours): approximately 50%
- sensitivity to ALA-PDT of sphere type cells relative to non-sphere type cells [5]: 2 times

SMILES: C#Cc1cccc(Nc2ncnc3cc(OCCOC)c(OCCOC)cc23)c1 [Erlotinib, N-(3-ethynylphenyl)-6,7-bis(2-methoxyethoxy)-4-quinazolinamine]
- inhibition of ABCG2 (inhibition of the excretion of Hoechst 33342), comparison among inhibitors (ABCG2 [6]): ABCG2-inhibitory ability almost equivalent to each other

SMILES: COc1cc2ncnc(Nc3ccc(F)c(Cl)c3)c2cc1OCCCN1CCOCC1 [Gefitinib, N-(3-chloro-4-fluoro-phenyl)-7-methoxy-6-(3-morpholin-4-ylpropoxy)quinazolin-4-amine]
- inhibition of ABCG2 (inhibition of the excretion of Hoechst 33342), comparison among inhibitors (ABCG2 [6]): ABCG2-inhibitory ability almost equivalent to each other; also recorded: weaker than that of Lapatinib
- fluorescence intensity / intracellular accumulation of PpIX [7]: intracellular accumulation of PpIX was observed, but the amount of PpIX accumulated was not as large as that in the case of inhibition by Lapatinib
- inhibition of ABCG2 (ABCG2 [8]): effectively inhibits ABCG2

SMILES: CS(=O)(=O)CCNCc1ccc(-c2ccc3ncnc(Nc4ccc(OCc5cccc(F)c5)c(Cl)c4)c3c2)o1 [Lapatinib, n-[3-chloro-4-[(3-fluorophenyl)methoxy]phenyl]-6-[5-[(2-methylsulfonylethylamino)methyl]-2-furyl]quinazolin-4-amine]
- inhibition of ABCG2 (inhibition of the excretion of Hoechst 33342), comparison among inhibitors (ABCG2 [6]): inhibits ABCG2 most strongly
- fluorescence intensity / intracellular accumulation of PpIX [7]: increased
- concentration region in which ABCG2 was significantly inhibited ([7]; 2 mM ALA): ≥ 10 nM
- sensitivity of the cells to LED irradiation ([4]; 10 mM ALA with Lapatinib 1 nM to 300 μM): increased in a concentration-dependent manner
